Measurements as given in patent US20240308984A1, “Jak Inhibitor With High Oral Bioavailability” (TECHNODERMA MEDICINES INC, priority 2021, published 2024).
Like-named read-outs stand apart in the source and are kept apart here.

Assay: Oral PK in rats, single oral dose, plasma concentration by LC-MS/MS
Format: in vivo, Sprague Dawley (SD) rats
Settings: SD rats, single oral gavage 5 mg/kg, n=3; for AUC0-t: sampling up to 24 hours, plasma; for Cmax: 1 mg/mL solution in DMA:30% Solutol HS 15:Saline 10:10:80, plasma
Method: Biological Description of Oral PK in Rats:
In brief, the compounds were prepared in a solvent [DMA: 30% Solutol HS 15: Saline=10:10:80 (v/v/v)] to form clear solution formulations having a concentration of 1 mg/mL. Each test compound was administered to 3 rats (n=3) in single oral gavage (5 mg/kg). Approximately 150 μL of whole blood was taken from a subclavian vein of each experimental rat before administration and at 0.25, 0.5, 1, 2, 4, 8, 12, and 24 hours after administration, respectively, and was collected into an Eppendorf tube containing EDTA-K2, then 100 μL of the whole blood was added to an Eppendorf tube containing 300 μL of cyanomethane (ACN), mixed and then centrifuged to separate the plasma, and after it was ensured that there was no hemolysis in the samples, the plasma samples were stored in a freezer at −90° C. to −60° C. for analyses of drug concentrations in the samples via LC-MS/MS.
Concentrations of compounds in the plasma samples were tested and analyzed via LC-MS/MS system (API4000: LC-MS-MS-001), 10 μL of the sample was mixed with 100 μL of ACN containing a standard, then 110 μL of water was added and the mixture was oscillated, and finally, 2 μL of the mixed solution was injected into the LC-MS/MS system.

[1] = Sprague-Dawley, rat, read-out: Cmax
[2] = Sprague-Dawley, rat, read-out: AUC0-t

AUC0-t	Cmax	Cmax [1]	AUC0-t [2]	SMILES
30.7 ng·h/mL	5.02 ng/mL	–	–	CCNC(=O)c1ccc(Nc2nccc(-c3ccc(NC(=O)[C@@H]4CC4(F)F)cc3)n2)cc1C [Comparative Example 4]
141 ng·h/mL	16.5 ng/mL	–	–	CCNC(=O)c1ccc(Nc2nccc(-c3ccc(NC(=O)[C@@H]4CC4(F)F)cc3)n2)cc1 [Comparative Example 5]
–	–	635 ng/mL	3090 ng·h/mL	CCNC(=O)c1ccc(Nc2nccc(-c3ccc(N(COC(=O)C(C)(C)C)C(=O)C4CC4(F)F)cc3)n2)cc1C (stereo not drawn) [Example 4]
–	–	689 ng/mL	2710 ng·h/mL	CCNC(=O)c1ccc(Nc2nccc(-c3ccc(N(COC(=O)C(C)(C)C)C(=O)C4CC4(F)F)cc3)n2)cc1 (stereo not drawn) [Example 5]
–	–	116 ng/mL	891 ng·h/mL	Cn1cc(Nc2nccc(-c3ccc(NC(=O)[C@@H]4CC4(F)F)nc3)n2)cn1 [Comparative Example 1, (S)-2,2-difluoro-N-(5-(2-((1-methyl-1H-pyrazol-4-yl)amino)pyrimidin-4-yl)pyridin-2-yl)cycloprop-ane-1-carboxamide]

The remaining lines, values behind:

SMILES	AUC0-t	Cmax	Cmax [1]	AUC0-t [2]
Cn1cc(Nc2nccc(-c3ccc(NS(=O)(=O)Cc4cccc(F)c4)cc3)n2)cn1 [Comparative Example 3]	381 ng·h/mL	–	–	–
Cn1cc(Nc2nccc(-c3ccc(N(COC(=O)C(C)(C)C)S(=O)(=O)Cc4cccc(F)c4)cc3)n2)cn1 [Example 3]	–	–	1860 ng/mL	2890 ng·h/mL
Cn1cc(Nc2nccc(-c3ccc(N(COC(=O)C(C)(C)C)S(=O)(=O)Cc4cccc(C#N)c4)cc3)n2)cn1 [Example 2, (41-(3-cyanophenyl)-N-(4-(2-(((1-methyl-1H-pyrazol-4-yl)amino)pyrimidin-4-yl)phenyl)methyl)sulfonamido)methyl pivalate]	–	–	791 ng/mL	1580 ng·h/mL
Cn1cc(Nc2nccc(-c3ccc(N(COC(=O)C(C)(C)C)C(=O)[C@@H]4CC4(F)F)nc3)n2)cn1 [Example 1, (S)-(2,2-difluoro-N-(5-(2-(((1-methyl-1H-pyrazol-4-yl)amino)pyrimidin-4-yl)pyridin-2-yl)cyclopropane-1-carboxamido)methyl pivalate]	1670 ng·h/mL	–	–	–
Cn1cc(Nc2nccc(-c3ccc(NS(=O)(=O)Cc4cccc(C#N)c4)cc3)n2)cn1 [Comparative Example 2]	47.4 ng·h/mL	20.2 ng/mL	–	–
